Experiment [1] relates to HT-29 colon cancer cells. The experiment is described as follows: O2 consumption rate (MitoXpress assay). The class given is cell-based, human. The conditions noted are these: compounds at their IC50 (MTT), 24 h. How it is done:
For enzymatic determination of lactate production, confluent tumor cells were incubated with 10 mM glucose for 24 hours. Culture medium was then filtered through centrifugation columns with a 10 KDa cutoff, and L-lactate concentrations were determined on an ISCUSflex analyzer (CMA Microdialysis AB, Solna, Sweden). O2 consumption was determined using the MitoXpress assay according to the manufacturer’s instructions (LuxCell Biosciences, Cork, Ireland). Briefly, after adding the oxygen probe to tumor cells cultured for 24 hours in 96-well microplates with or without the tested compounds, the wells were sealed with mineral oil, and respiration was evaluated using time-resolved fluorescent plate readers. Under these conditions, O2 depletion was translated into an increase in probe phosphorescence signal, and the slope of this signal was used to derive the O2 consumption rate.
Figure 6 Metabolic profiling of human HT29 colon cancer cells treated with cardiotonic steroids. A: Extracellular lactate concentrations and B: O2 consumption rates in HT29 cancer cells treated with the indicated compounds at their IC50in vitro growth inhibitory concentrations (see Table 1). The data (mean ± SEM from triplicates) are expressed in mM lactate accumulated in the extracellular medium after 24 hours and arbitrary units derived from time-resolved fluorescent signal.min^-1.

The target in the next experiment is T1, human α1β1 NaK complex (Homo sapiens, UniProt P05023).
T1 construct: made in house; host or cells: Pichia pastoris strain SMD1165 (membranes)
Put plainly: 3H-ouabain competitive displacement on P. pastoris membranes. In kind it is binding. The conditions noted are these: 3H-ouabain displacement, three independent experiments; read-out: Affinity (nM) α-1 (KD ± SEM). How it is done: (§1) K0.5 was calculated using a one site inhibition model: B/BCG=0 = K0.5/([CG] + K0.5). […] Binding of each cardiac glycoside was estimated in 3 separate experiments.
(§2) Average KD or Ki values ± SEM for each isoform were calculated. Statistical significance was calculated by the unpaired Students t-test. P values <0.05 were considered significant.

The next experiment deals with T2, human α3β1 NaK complex (Homo sapiens, UniProt P13637).
T2 construct: made in house; host or cells: Pichia pastoris strain SMD1165 (membranes)
The experiment is described as above. The class given is binding. How it is done:
as §1, §2

The next experiment has as its target T3, human α2β1 NaK complex (Homo sapiens, UniProt P50993).
T3 construct: made in house; host or cells: Pichia pastoris strain SMD1165 (membranes)
The experiment is described as above. In kind it is binding. On the procedure:
as §1, §2

Experiment [2] deals with HT-29 colon cancer cells. Put plainly: MTT colorimetric in vitro growth inhibition assay. The class given is cell-based, human. The conditions noted are these: Homo sapiens, HT-29, 72 h, read-out: IC50 (nM) HT-29. The text has this: (§3) The histological types and origins of the eight human cancer cell lines that were used for the MTT colorimetric assay are detailed in the legend of Table 1. Two mouse cancer cell lines were also used, the CT26.WT colon cancer cell line (ATCC code CRL-2638) and the B16F10 melanoma cell line (ATCC code CRL-6475). Both cell lines were obtained from the American Type Culture Collection (ATCC, Manassas, VA). A control cell line (human NHDF fibroblasts) was obtained from PromoCell (code c-12300; Heidelberg, Germany). The cell lines detailed in Figure 2A are a generous gift from the National Cancer Institute (NCI, Bethesda, USA) to Steven Karlish’s lab.
(§4) The cancer cells were cultured in RPMI (Lonza, Verviers, Belgium) medium supplemented with 10% heat-inactivated fetal calf serum (Lonza). All culture media were supplemented with 4 mM glutamine, 100 μg/mL gentamicin, 200 U/mL penicillin and 200 μg/mL streptomycin (Lonza). The NHDF fibroblasts were cultured in Lonza medium cc3132 KT FGM-2 BulletKit.
(§5) The overall growth level of the human cancer cell lines was determined using a colorimetric MTT (3-(4,5-dimethylthiazol-2yl)-2,5-diphenyltetrazolium bromide, Sigma, Belgium) assay as detailed previously. Briefly, this test measures the number of metabolically active (thus living) cells that are able to transform the yellow MTT into the blue formazan dye via a mitochondrial reduction involving succinate dehydrogenase. The amount of formazan obtained at the end of the experiment (measured by spectrophotometry) is directly proportional to the number of living cells. The determination of the optical density in the control compared to the treated cells therefore enables quantitative measurements of the effects of compounds on the growth of normal as well as cancer cells in vitro.
(§6) Each experimental condition was performed in six replicates.

For another experiment, the system named is U373 glioma cells. Put plainly: MTT colorimetric in vitro growth inhibition assay. The class given is cell-based, human. As to conditions: Homo sapiens, U373 MG, 72 h, read-out: IC50 (nM) U373.
Excerpt: as §3, §4, §5, §6

A further experiment relates to SKMEL-28 melanoma cells. The experiment is described as follows: MTT colorimetric in vitro growth inhibition assay. In kind it is cell-based, human. The conditions noted are these: Homo sapiens, SK-MEL-28, 72 h, read-out: IC50 (nM) SKMEL-28.
Excerpt: as §3, §4, §5, §6

Experiment [3] relates to PC-3 prostate cancer cells. The experiment is described as follows: MTT colorimetric in vitro growth inhibition assay. As to conditions: Homo sapiens, 72 h, read-out: IC50 (nM) PC-3. In kind it is cell-based, human.
Excerpt: as §3, §4, §5, §6

The next experiment concerns A549 NSCLC cells. The experiment is described as follows: MTT colorimetric in vitro growth inhibition assay. The class given is cell-based, human. As to conditions: Homo sapiens, A549, 72 h, read-out: IC50 (nM) A549.
Excerpt: as §3, §4, §5, §6

The test system of another experiment is T98G glioma cells. The experiment is described as follows: MTT colorimetric in vitro growth inhibition assay. In kind it is cell-based, human. As to conditions: Homo sapiens, T98G, 72 h, read-out: IC50 (nM) T98G.
Excerpt: as §3, §4, §5, §6

For another experiment, the system named is Hs683 glioma cells. Put plainly: MTT colorimetric in vitro growth inhibition assay. The class given is cell-based, human. The conditions noted are these: Homo sapiens, Hs 683, 72 h, read-out: IC50 (nM) Hs683.
Excerpt: as §3, §4, §5, §6

Experiment [4] has as its system MCF-7 breast cancer cells. The experiment is described as follows: MTT colorimetric in vitro growth inhibition assay. The class given is cell-based, human. As to conditions: Homo sapiens, MCF7, 72 h, read-out: IC50 (nM) MCF-7.
Excerpt: as §3, §4, §5, §6

Experiment [5] concerns human cancer cells (A549, U373, Hs683, T98G, MCF-7, SKMEL-28, PC-3, HT-29). The experiment is described as follows: MTT growth inhibition, mean over the eight human cancer cell lines. As to conditions: 72 h, read-out: IC50 (nM) Mean ± SEM. The class given is cell-based.
Excerpt: as §3, §4, §5, §6

The next experiment deals with NHDF fibroblasts. Put plainly: MTT growth inhibition in non-cancerous control cell line. The class given is cell-based. The conditions noted are these: NHDF, normal human fibroblasts, read-out: in vitro growth inhibitory effects (IC50) in NHDF fibroblasts.
Excerpt: as §3, §4, §5, §6

For the next experiment, the system named is CT26 colon cancer cells. Put plainly: MTT growth inhibition in mouse cancer cells. The class given is cell-based. The conditions noted are these: mouse cancer cell line, read-out: IC50 growth inhibitory concentration in CT26 colon cancer cells.
Excerpt: as §3
(§7) The cancer cells were cultured in RPMI (Lonza, Verviers, Belgium) medium supplemented with 10% heat-inactivated fetal calf serum (Lonza). […]
(§8) The overall growth level of the human cancer cell lines was determined using a colorimetric MTT (3-(4,5-dimethylthiazol-2yl)-2,5-diphenyltetrazolium bromide, Sigma, Belgium) assay as detailed previously. […] The amount of formazan obtained at the end of the experiment (measured by spectrophotometry) is directly proportional to the number of living cells. The determination of the optical density in the control compared to the treated cells therefore enables quantitative measurements of the effects of compounds on the growth of normal as well as cancer cells in vitro. […]

A further experiment deals with B16F10 melanoma cells. The experiment is described as follows: MTT growth inhibition in mouse cancer cells. In kind it is cell-based. As to conditions: B16-F10; mouse cancer cell line; read-out: IC50 growth inhibitory concentration in B16F10 melanoma cells.
Excerpt: as §3, §7, §8

The target in another experiment is Rodent NaK. Further details: method as in PMID 17706876. As to conditions: read-out: Ki for inhibition of activity, rodent NaK; cited from earlier work.
The target in the next experiment is human NaK. Set-up: method as in PMID 17706876. The conditions noted are these: read-out: Ki for inhibition of activity, human NaK; cited from earlier work.
Setting [6] is: three days of culture, * three independent experiments, ** one experiment, six replicates.

Where two headings read alike, the source gives them in different places.

For orientation: Kd means the concentration at which binding is half-saturated. Regarding `C[C@@H]1O[C@@H](O[C@H]2CC[C@@]3(C)[C@H](CC[C@@H]4[C@@H]3[C@H](O)C[C@]3(C)[C@@H](c5ccc(=O)oc5)CC[C@]43O)C2)[C@H](O)[C@H](O)[C@H]1O` [Gamabufotalin-rhamnoside], in the experiment with HT-29 colon cancer cells [1], the “O2 consumption rate (cell respiration)” value was “significantly reduced”. In addition, the Kd on human α1β1 NaK complex was determined as 30 ± 7 nM; on human α3β1 NaK complex (3H-ouabain displacement, three independent experiments, read-out: Affinity (nM) α-3 (KD ± SEM)), 17 ± 2 nM; at human α2β1 NaK complex (3H-ouabain displacement, three independent experiments, read-out: Affinity (nM) α-2 (KD ± SEM)), 36 ± 10 nM. Also, on human α3β1 NaK complex (ratio of KD α-1 to KD α-3), the “Selectivity α-1 / α-3” value is given as 1.8. At human α2β1 NaK complex (ratio of KD α-1 to KD α-2), the “Selectivity α-1 / α-2” value is given as 0.8. In addition, the IC50 with HT-29 colon cancer cells [2] worked out at 8 ± 1 nM; in the experiment with U373 glioma cells, 6 ± 2 nM; in the experiment on SKMEL-28 melanoma cells it was 18 ± 7 nM; in experiment [3], 6 ± 1 nM; in the experiment with A549 NSCLC cells, 3 ± 1 nM; with T98G glioma cells, 7 ± 1 nM. The IC50 with Hs683 glioma cells was determined as 4 ± 1 nM; in experiment [4] it was 17 ± 5 nM; in experiment [5] (Homo sapiens), 9 ± 2 nM; with NHDF fibroblasts, 1.84 µM; in the experiment with CT26 colon cancer cells, 0.9 µM; in the experiment with B16F10 melanoma cells it was 0.7 µM.
Broadly, the Ki is the dissociation constant of the complex between target and ligand, obtained from inhibition or displacement. Turning to `C[C@@H]1O[C@@H](O[C@H]2C[C@@H](O)[C@]3(CO)[C@H]4[C@H](O)C[C@]5(C)[C@@H](C6=CC(=O)OC6)CC[C@]5(O)[C@@H]4CC[C@]3(O)C2)[C@H](O)[C@H](O)[C@H]1O` [Ouabain], the “O2 consumption rate (cell respiration)” value in the experiment on HT-29 colon cancer cells [1] is listed as “significantly reduced”. Moreover, the IC50 worked out at 84 ± 8 nM in the experiment on HT-29 colon cancer cells [2] (setting [6]); 78 ± 1 nM with U373 glioma cells (setting [6]); 83 ± 13 nM with SKMEL-28 melanoma cells (setting [6]); 63 ± 10 nM in [3] (setting [6]); 37 ± 2 nM in the experiment on A549 NSCLC cells (setting [6]); 80 ± 3 nM in the experiment on T98G glioma cells (setting [6]). For the same molecule, the IC50 was determined as 34 ± 3 nM in the experiment on Hs683 glioma cells (setting [6]); 100 ± 17 nM in experiment [4] (setting [6]); 70 ± 8 nM in [5] (mean over eight human cancer cell lines, three days of culture). Besides, the values for the Ki at Rodent NaK and on human NaK were 100 µM and 0.1 µM, respectively.
